Values joined by “and” are separate entries in the source; they are usually repeats but may differ in a detail not shown here. Identical values can stand only once.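 Cultured in 96-well plates, cells were exposed to test compound for 48 hours across five concentrations. GI50: concentration for 50% inhibition of growth. TGI: concentration producing complete growth inhibition.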
How the values were obtained:
Assay in all cases: NCI anticancer screen, dose series, 48 h
CCRF-CEM leukemia = test system: CCRF-CEM leukemia
HOP-62 NSCLC = test system: HOP-62 NSCLC
HOP-92 NSCLC = test system: HOP-92 NSCLC
IGROV1 ovarian = test system: IGROV1 ovarian
NCI/ADR-RES ovarian = test system: NCI/ADR-RES ovarian
OVCAR-8 ovarian = test system: OVCAR-8 ovarian
SF-295 CNS = test system: SF-295 CNS
TK-10 renal = test system: TK-10 renal

| Structure (SMILES) | TGI (CCRF-CEM leukemia) [µM] | TGI (HOP-62 NSCLC) [µM] | TGI (HOP-92 NSCLC) | TGI (IGROV1 ovarian) [µM] | TGI (NCI/ADR-RES ovarian) | TGI (OVCAR-8 ovarian) [µM] | TGI (SF-295 CNS) | TGI (TK-10 renal) | GI50 (CCRF-CEM leukemia) [µM] | GI50 (HOP-92 NSCLC) [µM] | GI50 (IGROV1 ovarian) [µM] | GI50 (NCI/ADR-RES ovarian) [µM] | GI50 (OVCAR-8 ovarian) [µM] | GI50 (SF-295 CNS) [µM] | GI50 (TK-10 renal) [µM] | GI50 (HOP-62 NSCLC) [µM] |
| --- | --- | --- | --- | --- | --- | --- | --- | --- | --- | --- | --- | --- | --- | --- | --- | --- |
| COc1cc2c3c(c4ccc(O)cc4c2cc1OC)[C@@H](O)[C@@H]1CCCN1C3 | 0.0073 | 0.0421 | 0.0191 µM | 0.00965 | 0.532 µM | 0.48 | 0.0655 µM | 0.00649 µM |  |  |  |  |  |  |  |  |
| CC[C@H](C)[C@H](NC(=O)CN(C)C)C(=O)N(C)[C@H](C[C@@H](OC(C)=O)c1nc(C(=O)NC23C4C5C2C2C3C4C52C(=O)OC)cs1)C(C)C (stereo partly drawn) | > 33.2 | > 33.2 | > 33.2 µM | > 33.2 | > 33.2 µM | > 33.2 | > 33.2 µM | > 33.2 µM | 0.18 | > 33.2 | 0.428 | 11.1 | 0.507 | 0.552 | 9.48 |  |
| O=C(NCCN1CCOCC1)c1cc2c(Oc3ccc(NC(=O)C4(C(=O)Nc5ccc(F)cc5)CC4)cc3)ccnc2[nH]1 | > 100 | 31.5 | 16.5 µM | > 100 | > 100 µM | > 100 | 15.5 µM | 41 µM | 11 | 1.82 | 2.32 | 22.9 | 5.19 | 0.47 | 7.56 | 3.22 |
| COc1cc2c(c3oc4c(O)cccc4c(=O)c13)CC(C(C)(O)CCl)O2 (stereo not drawn) |  | 5.85 | 10.5 µM | 8.28 | 11.9 µM | 7.94 | 24.1 µM | 41.8 µM |  |  |  |  |  |  |  |  |
| COc1cccc(/C=C\C(=O)c2ccccc2)c1 | > 100 | 42.1 | 26.2 µM | 21.2 | > 100 µM | 24.7 | 27.5 µM | 30.4 µM | 6.79 | 6.46 | 3.19 | 17.2 | 7.83 | 8.45 | 13.7 | 20.2 |
| Cc1ccc2nc(CN(CCN(Cc3nc4ccc(C)cc4[nH]3)Cc3nc4ccc(C)cc4[nH]3)Cc3nc4ccc(C)cc4[nH]3)[nH]c2c1 |  | 3.24 | 2.89 µM | 3.35 | 3.36 µM | 3.22 | 2.89 µM | 2.95 µM |  | 1.45 | 1.82 | 1.89 | 1.76 | 1.55 | 1.48 | 1.83 |
| COc1ccc([C@@H]2[C@@H](Cl)C(=O)N2c2cc(OC)c(OC)c(OC)c2)cc1C | > 100 | > 100 | 24.9 µM | 72.4 | > 100 µM | 77.5 | 39.7 µM | 79.9 µM | 0.0465 | 0.144 | 0.0849 | 0.0426 | 0.0504 | 0.0501 | 10.5 | 0.0535 |
| CC1OC(O[C@@H]2C=C3CC[C@@H]4[C@H](CC[C@]5(C)[C@@H](c6ccc(=O)oc6)CC[C@]45O)[C@@]3(C)CC2)C(O)C(O)C1O (stereo partly drawn) |  |  | 0.003 µM and 0.000676 µM |  | 0.003 µM and 0.000304 µM |  | 0.003 µM and 0.000407 µM | 0.00939 µM and 0.006 µM |  |  |  |  |  |  |  |  |
| COC(=O)[C@]12CC[C@@H](C)[C@H](C)[C@@H]1C1=CC[C@@H]3[C@@]4(C)C[C@@H](OC(C)=O)[C@H](OC(C)=O)[C@@](C)(COC(C)=O)[C@@H]4[C@H](O)C[C@@]3(C)[C@]1(C)CC2 | > 100 | > 100 | > 100 µM | > 100 | > 100 µM | > 100 | > 100 µM | > 100 µM | 1.96 | 3.9 | 2.17 | 3.16 | 3.15 | 2.84 | 3.08 | 3.25 |
| COc1cc([C@H]2OC[C@@H]3C(c4cc(OC)c5c(c4)OCO5)OC[C@H]23)cc(OC)c1OC (stereo partly drawn) | > 100 | > 100 | > 100 µM | > 100 | > 100 µM | > 100 | > 100 µM | > 100 µM |  |  |  |  |  |  |  |  |
| N#Cc1ccc2c(-c3ccnc(NC4CC4)n3)c(-c3ccc(F)cc3)nn2c1 | > 25 | > 25 | > 25 µM | > 25 | > 25 µM | > 25 | > 25 µM | > 25 µM | > 25 | > 25 | > 25 | > 25 | > 25 | > 25 | > 25 | > 25 |
| COC(=O)CC(=O)OC1C[C@@H]2CCC3C(C)(C)CCC[C@]3(C)C23CC[C@@]1(C)C3 (stereo partly drawn) | > 100 | 34.1 | 31.9 µM | 31.8 |  | 36.8 | 34.5 µM | 34.3 µM |  |  |  |  |  |  |  |  |
| ClC/C=C/CSc1ncnc2nc[nH]c12 | > 100 | > 100 | > 100 µM | > 100 | > 100 µM | > 100 | > 100 µM |  | > 100 | > 100 | > 100 | > 100 | > 100 | > 100 |  | > 100 |
| Oc1ccccc1/C=N\NC(=S)Nc1ccc(F)cc1 |  | > 65 | > 100 µM | 17.7 | > 37.8 µM | > 63.1 |  | > 100 µM | 0.396 | 0.962 | 1.31 | 0.443 | 1.22 | 1.38 | 6.83 | 0.832 |
| COc1ccc2c(Cl)cc(NC(=S)Nc3ccccc3)nc2c1 | 90.9 | > 100 | 49.4 µM | 54.3 | 54.1 µM | 38.4 | > 100 µM | > 100 µM |  |  |  |  |  |  |  |  |
| COc1ccc(/C(=C(\c2ccccc2)[N+](=O)[O-])c2ccc(OCCN3CCCC3)cc2)cc1 | 22.9 | 4.94 | 12 µM | 17.3 | 24.2 µM | 31.7 | 5.39 µM | 20.1 µM | 5.19 | 2.25 | 3.57 | 8.41 | 11.8 | 1.93 | 5.17 | 1.89 |
| CO[C@H]1C[C@H](O[C@H]2CC[C@@]3(C)[C@H](CC[C@@H]4[C@@H]3CC[C@]3(C)[C@@H](C5=CC(=O)OC5)CC[C@]43O)C2)O[C@H](C)[C@H]1O | > 100 | 0.0202 | 0.0882 µM | 0.113 | 0.0472 µM | 0.0245 | 0.0555 µM | 0.0482 µM |  |  |  |  |  |  |  |  |
